Data set [1] deals with γ-secretase enzyme complex (Homo sapiens, UniProt P49768). On the procedure: Multiple in vitro assays were utilized to characterize the potency and selectivity of compound (1). The primary in vitro assay uses cell-free membrane preparations to provide the -secretase enzyme complex as an in vitro assay. […] The cellular processing of APP is measured using an ELISA-based readout. HEK293 cells have been engineered to over-express APP. Processing is measured by an ELISA-based quantitation of the A 1-40 secretase product. Cellular Notch inhibitory activity is measured using HEK293 cell line stably expressing a truncated human Notch 1 fused in its intracellular domain to a VP16/[…] transcriptional activator, which drives a firefly luciferase gene Inhibition of Notch processing produces a reduction in luciferase reporter activity as measured by its chemo luminescence.

The subject of data set [2] is AsPC1 human pancreatic carcinoma xenografts. Put plainly: Antitumor efficacy in AsPC1 pancreatic xenografts in nude mice. The class given is in vivo. On the procedure: Female (athymic nu/nu) nude mice were obtained from Charles River Laboratories (Wilmington, Mass.), while female SCID-beige mice were purchased from Taconic (Germantown, N.Y.). Mice were used when they were approximately 8-12 weeks old (nudes) or 8-10 weeks old (SCID-beige), and weighed approximately 23-25 grams. The health of all animals was determined daily by gross observation of experimental animals and by the analyses of blood samples of sentinel animals that were housed on the shared shelf racks. All animals were allowed to acclimate and recover from any shipping related stress for a minimum of 72 hours prior to experimental use. Autoclaved water and irradiated food [5058-ms Pico chow (mouse) Purina, Richmond, Ind.] were provided ad libitum, and the animals were maintained on a 12 hour light and dark cycle. Cages, bedding and water bottles were autoclaved before use and were changed weekly. MiaPaca2, AsPC1 and BxPC3 human pancreatic carcinoma cells were purchased from ATCC (Manassas, Va.). BxPC3 and AsPC1 cells were grown in RPMI medium and MiaPaca2 cells were grown in Dulbecco's Modified Essential Medium (DMEM). All culture media were supplemented with 10% (v/v) FBS and 1% (v/v) […]. […] SCID-biege mice were implanted se with 5×10^6 BxPC3 cells in a 1:1 mixture of matrigel:PBS in a volume of 0.2 ml per mouse in the right hind flank on May 22, 2007. […] Formulated compound and vehicle were stored at 4° C. and prepared weekly. The suspension was mixed vigorously prior to administration. Gemcitabine (Gemzar®, Eli Lilly and Company, Indianapolis, Ind., USA) was reconstituted with sterile saline to yield a stock solution of 38 mg/ml for the entire 3-4 week study. […] Nude mice implanted with MiaPaca2 or AsPC1 xenografts were randomized on day 17 and day 9 post cell implant, respectively. SCID-beige mice bearing BxPC3 xenografts were randomized 8 days post implant. […] Treatment for the MiaPaca2 study began on Feb. […] For the MiaPaca2 and AsPC1 studies, qd Compound (1) suspension or q3d gemcitabine treatment ended on day 37 post tumor cell implant, whereas for the BxPC3 study, qd Compound (1) suspension or q3d gemcitabine treatment ended on day 35 post tumor cell implant. For intermittent dosing of Compound (1) suspension in the AsPC1 study using the 7+/7− schedule×2 cycles, treatment ended on day 15, was reinitiated on day 23, and finally ended day 29. For intermittent dosing using the 3+/4− schedule×4 cycles, treatment ended on day 11, was reinitiated on day 16, ended day 18, was reinitiated on day 23, ended day 25, was reinitiated day 30, and finally ended on day 32. In the first combination group, daily Compound (1) was given simultaneously with q3d gemcitabine for a total of four weeks. For the remaining combination groups, Compound (1) and gemcitabine were given sequentially rather than simultaneously. In group 8 gemcitabine was dosed q3d during the 1st and 3rd weeks, whereas Compound (1) was given daily during the 2nd and 4th weeks only. In group 9, the order of compound dosing was reversed, with Compound (1) suspension given daily during the 1st and 3rd weeks, whereas gemcitabine was given q3d during the 2nd and 4th weeks. In group 10, gemcitabine was dosed q3d during the 1st and 2nd weeks, whereas Compound (1) was given daily during the 3rd and 4th weeks. In group 11, the order of compound dosing was reversed, with Compound (1) given daily during the 1st and 2nd weeks, and gemcitabine dosed q3d for the 3rd and 4th weeks. […]

The next data set can be described thus: in vivo. How it is done:
Treatment began on Sep. 12, 2006 (day 26 post tumor cell implant). Compound (1) and vehicle were dosed as a suspension using a sterile 1 cc syringe and 18-gauge gavage needle (0.2 ml/animal) once (qd) or twice per day (bid) 8 hours apart for either 7, 14 or 21 days out of a 21 day schedule. For animals dosed for 7 days (7+/14−), treatment ended on Sep. 19, 2006 (day 33 post tumor cell implant). These mice were re-treated on day 67 with the same dose of compound (1) for another 7 days until day 74. For animals dose for 14 days (14+/7−) treatment ended on Sep. 26, 2006 (day 40 post tumor cell implant), and for animals dosed for 21 days, treatment ended on Oct. 3, 2006 (day 47 post tumor cell implant).
Weight loss was graphically represented as percent change in mean group body weight, using the formula: ((W−W0)/W0)×100, where ‘W’ represents mean body weight of the treated group at a particular day, and ‘W0’ represents mean body weight of the same treated group at initiation of treatment.

[3] abbreviates: nude, mouse, in vivo, maximum tolerated dose (MTD).

For `CC(C)(C(=O)NCC(F)(F)C(F)(F)F)C(=O)N[C@@H]1C(=O)Nc2ccccc2-c2ccccc21` [Compound (1), 2,2-Dimethyl-N—((S)-6-oxo-6,7-dihydro-5H-dibenzo[b,d]azepin-7-yl)-N′-(2,2,3,3,3-pentafluoro-propyl)-malonamide], in data set [1], the “IC50 in cellular and cell-free assays” value is “low nanomolar range”. The “% TGI” value was 49% in data set [2] (3 mg/kg po qd × 28 days, day 37); 58% in data set [2] (10 mg/kg po qd × 28 days, day 37); 32% in data set [2] (10 mg/kg po, 3+/4− × 4 cycles); 41% in data set [2] (10 mg/kg po, 7+/7− × 2 cycles). Also, the animal deaths entry in the data set “in vivo” (30 mg/kg bid for 21 days, 10/group) is given as “two”. Further, the mice died entry in “in vivo” (60 mg/kg bid for 14 days, 10/group) is recorded as “four”; in “in vivo” (60 mg/kg bid for 21 days, 10/group), “seven”; in “in vivo” (60 mg/kg qd for 21 days, 10/group) it was “three”. Moreover, the “maximum tolerated dose (MTD)” value in the data set “in vivo” (nude, mouse, in vivo, 21 days) is recorded as 10 mg/kg. This compound displayed an MTD at 7 days in the data set “in vivo” (setting [3]) of 60 mg/kg. The MTD at 14 days in the data set “in vivo” (setting [3]) turned out to be 30 mg/kg.

Usually MTD stands for the largest dose that counted as tolerated. Read a high MTD as better tolerability.

The values above are taken from patent publication US8741889B2, “Method of treating non-small cell lung cancer and colon cancer with gamma-secretase inhibitor” (Hoffmann-La Roche Inc, priority 2008, dated 2014).
